These results are taken from US8802858B2, “Furazanobenzimidazoles as prodrugs to treat neoplastic or autoimmune diseases” (Basilea Pharmaceutica AG, priority 2009, dated 2014).

SMILES strings stand for the structures.

The data set in a line: Prodrug-drug conversion in full blood. Type of data set: in vitro ADME. The following applies: fresh heparinised rat blood, 37° C., after 120 min. The procedure: 495 μL fresh heparinised rat blood are spiked with 5 μL of a 1 mg/mL DMSO solution of the analyte (prodrug) at 37° C. After t=0, 5, 15, 30, 60 and 120 min, a blood sample is taken and precipitated. Therefore to 50 μL blood sample or spiked blood sample 150 μL acetonitrile containing an internal standard are added. Samples are centrifuged and 20 μl of the supernatant are injected into the HPLC system for determination of compound concentration (prodrug and parent drug) by LC-MS/MS analysis.
For calibration, a standard curve is prepared with a compound concentration range from 10 to 10000 ng/mL in fresh heparine rat blood. Therefore the blood is spiked (2 μL DMSO solution in 198 μL fresh rat blood) and precipitated like unknown samples.

Turning to `NCC(=O)Nc1nonc1-c1nc2ccccc2n1CC(=O)c1ccc(N)cc1` [Example 13, 2-Amino-N-(4-{1-[2-(4-amino-phenyl)-2-oxo-ethyl]-1H-benzoimidazol-2-yl}-furazan-3-yl)-acetamide], the “conversion of prodrug into its parent drug” value is recorded as “approximately 74%”.
